Measured values published in patent US20210137117A1, “HERBICIDAL MIXTURES” (Bayer Aktiengesellschaft, priority 2017, published 2021).

Experiments:
Experiment in all cases: Pre-emergence action against weeds (greenhouse)
Type in all cases: in vivo
[1] = tested on: ALOMY—sensitive (Alopecurus myosuroides); details: for Herbicidal action ALOMY sensitive: pre-emergence
From the text: (§1) Depending on the trial conditions, the soil of the standard field soil is sterile or not sterile.
(§2) The amount of water used for spray application was 300l/ha.
ALOMY—sensitive (Alopecurus myosuroides) sensitive to customary herbicidally active compounds.
(§3) Insofar as herbicidal effects of the compositions according to the invention compared to mixtures of the prior art or compared to components applied individually against economically important mono- and dicotyledonous harmful plants were the centre of attention, the synergistic herbicidal activities were calculated using Colby's formula (cf. S. R. Colby; Weeds 15 (1967), 20-22): […]

[2] = tested on: ALOMY—resistant (Alopecurus myosuroides); details: for Herbicidal action ALOMY resistant: pre-emergence
From the text: as §1, §2
ALOMY—resistant (Alopecurus myosuroides) resistant to herbicidally active compounds of the HRAC groups A and B; population mixture of field origin having increased metabolic resistance (IMR) and some target site resistance (TSR).
as §3

[3] = tested on: LOLRI—sensitive (Lolium rigidum); details: for Herbicidal action LOLRI sensitive: pre-emergence
From the text: as §1, §2
LOLRI—sensitive (Lolium rigidum) sensitive to customary herbicidally active compounds.
as §3

[4] = tested on: LOLRI—resistant (Lolium rigidum); details: for Herbicidal action LOLRI resistant: pre-emergence
From the text: as §1, §2
LOLRI—resistant (Lolium rigidum) resistant to herbicidally active compounds of the HRAC groups A and B; population mixture of field origin having increased metabolic resistance (IMR) and some target site resistance (TSR).
as §3

AVEFA (Avenafatua) = details: for Herbicidal action AVEFA: pre-emergence
From the text: as §1, §2
AVEFA (Avenafatua)—Wild oat
as §3

BROST (Bromus sterilis) = details: for Herbicidal action BROST: pre-emergence
From the text: as §1, §2
BROST (Bromus sterilis)—Bromegrass, barren
as §3

[5] = tested on: SORHA (Sorghum halepense); details: for Herbicidal action SORHA: pre-emergence
From the text: as §1, §2
SORHA (Sorghum halepense)—Johnsongrass
as §3

CENCY (Centaurea cyanus) = details: for Herbicidal action CENCY: pre-emergence
From the text: as §1, §2
CENCY (Centaurea cyanus)—Cornflower
as §3

[6] = tested on: VERHE (Veronica hederaefolia); details: for Herbicidal action VERHE: pre-emergence
From the text: as §1, §2
VERHE (Veronica hederaefolia)—Speedwell, iveleaf
as §3

EMEAU (Emex australis) = details: for Herbicidal action EMEAU: pre-emergence
From the text: as §1, §2
EMEAU (Emex australis)—Cathead
as §3

[7] = tested on: RAPRA (Raphanus raphanistrum); details: for Herbicidal action RAPRA: pre-emergence
From the text: as §1, §2
RAPRA (Raphanus raphanistrum)—Charlock, jointed
as §3

BRSNW (Brassica napus) = details: for Herbicidal action BRSNW: pre-emergence
From the text: as §1, §2
BRSNW (Brassica napus)—Rape, winter
as §3

[8] = tested on: TRZAS (Triticum aestivum); details: for Herbicidal action (crop damage) TRZAS: pre-emergence
From the text: as §1, §2
TRZAS (Triticum aestivum)—Wheat, spring
as §3

HORVS (Hordeum vulgare) = details: for Herbicidal action (crop damage) HORVS: pre-emergence
From the text: as §1, §2
HORVS (Hordeum vulgare)—Barley, spring
as §3

`CCOC(=O)C1=NN(c2ccc(Cl)cc2Cl)C(C)(C(=O)OCC)C1` (stereo not drawn) [Mefenpyr, ethyl 1-(2,4-dichlorophenyl)-5-(ethoxycarbonyl)-5-methyl-2-pyrazoline-3-carboxylate] was tested, and the herbicidal action ([1]; 300 g AS/ha) was 0%, the “Herbicidal action ALOMY sensitive” value ([1]; dose 10 g AS/ha) was 0 and the “Herbicidal action ALOMY sensitive” value ([1]; dose 100 g AS/ha) was 0. The herbicidal action ([2]; 300 g AS/ha) was 0%, the “Herbicidal action ALOMY resistant” value ([2]; dose 10 g AS/ha) was 0 and the “Herbicidal action ALOMY resistant” value ([2]; dose 100 g AS/ha) was 0. For the same compound, the herbicidal action ([3]; 300 g AS/ha) was 0%, the “Herbicidal action LOLRI sensitive” value ([3]; dose 10 g AS/ha) was 0 and the “Herbicidal action LOLRI sensitive” value ([3]; dose 100 g AS/ha) was 0. For the same compound, the herbicidal action ([4]; 300 g AS/ha) was 0%, the “Herbicidal action LOLRI resistant” value ([4]; dose 10 g AS/ha) was 0 and the “Herbicidal action LOLRI resistant” value ([4]; dose 100 g AS/ha) was 0. The herbicidal action (AVEFA (Avenafatua); 300 g AS/ha) was 0%, the “Herbicidal action AVEFA” value (AVEFA (Avenafatua); dose 10 g AS/ha) was 0 and the “Herbicidal action AVEFA” value (AVEFA (Avenafatua); dose 100 g AS/ha) was 0. The herbicidal action (BROST (Bromus sterilis); 300 g AS/ha) was 0%, the “Herbicidal action BROST” value (BROST (Bromus sterilis); dose 10 g AS/ha) was 0 and the “Herbicidal action BROST” value (BROST (Bromus sterilis); dose 100 g AS/ha) was 0. For the same compound, the herbicidal action ([5]; 300 g AS/ha) was 0%, the “Herbicidal action SORHA” value ([5]; dose 10 g AS/ha) was 0 and the “Herbicidal action SORHA” value ([5]; dose 100 g AS/ha) was 0. The herbicidal action (CENCY (Centaurea cyanus); 300 g AS/ha) was 0%, the “Herbicidal action CENCY” value (CENCY (Centaurea cyanus); dose 10 g AS/ha) was 0 and the “Herbicidal action CENCY” value (CENCY (Centaurea cyanus); dose 100 g AS/ha) was 0. The herbicidal action ([6]; 300 g AS/ha) was 0%, the “Herbicidal action VERHE” value ([6]; dose 10 g AS/ha) was 0 and the “Herbicidal action VERHE” value ([6]; dose 100 g AS/ha) was 0. The herbicidal action (EMEAU (Emex australis); 300 g AS/ha) was 0%, the “Herbicidal action EMEAU” value (EMEAU (Emex australis); dose 10 g AS/ha) was 0 and the “Herbicidal action EMEAU” value (EMEAU (Emex australis); dose 100 g AS/ha) was 0. The herbicidal action ([7]; 300 g AS/ha) was 0%, the “Herbicidal action RAPRA” value ([7]; dose 10 g AS/ha) was 0 and the “Herbicidal action RAPRA” value ([7]; dose 100 g AS/ha) was 0. The herbicidal action (BRSNW (Brassica napus); 300 g AS/ha) was 0%, the “Herbicidal action BRSNW” value (BRSNW (Brassica napus); dose 10 g AS/ha) was 0 and the “Herbicidal action BRSNW” value (BRSNW (Brassica napus); dose 100 g AS/ha) was 0. The herbicidal action ([8]; 300 g AS/ha) was 0%, the “Herbicidal action (crop damage) TRZAS” value ([8]; dose 10 g AS/ha) was 0 and the “Herbicidal action (crop damage) TRZAS” value ([8]; dose 100 g AS/ha) was 0. For the same compound, the herbicidal action (HORVS (Hordeum vulgare); 300 g AS/ha) was 0%, the “Herbicidal action (crop damage) HORVS” value (HORVS (Hordeum vulgare); dose 10 g AS/ha) was 0 and the “Herbicidal action (crop damage) HORVS” value (HORVS (Hordeum vulgare); dose 100 g AS/ha) was 0.
